Results as given in patent publication US7589186B2, “Isolated hOAT polynucleotide” (priority 1998, dated 2009).

Experiments:
CHO-hOAT cells = experiment: Cytotoxicity in CHO-hOAT compared to CHO cells; type: cell-based, Chinese hamster; conditions: for fold more cytotoxic in CHO-hOAT compared to CHO cells: without probenecid
Text: (§1) Uptake and cytotoxicity of ADV in the two cell lines was compared.

hOAT = hOAT (Homo sapiens, UniProt Q4U2R8); experiment: Uptake of antiviral nucleotides (ADV, CDV, cCDV) in CHO-hOAT versus CHO cells; conditions: for Vmax of uptake by CHO-hOAT / accumulation in CHO-hOAT (in words): CHO-hOAT cells
Description: pIRES-hOAT plasmid was transfected into CHO-K1 cells (ATCC CCL61) growing in F-12 nutrient mixture supplemented with 10% fetal bovine serum, 100 U/ml penicillin, and 100 μg/ml streptomycin. 24 hours before transfection, approximately 6×10^6 CHO-K1 cells were seeded into 100-mm Petri dish. At the time of transfection, media was aspirated and 6 ml of fresh media containing 12 μg of pIRES-hOAT and 60 μg of Cytofectin GSV cationic lipid (Glen Research, Sterling, Va.) was added to the cells. Following overnight incubation, selection of stable transformants started in phenol red-free F-12 nutrient mixture containing fetal bovine serum, penicillin and streptomycin as above, plus 1 mg/ml G418 (CLONTECH). […] For the PAH uptake assay, the cells were seeded into 12-well plates at the density of 2×10^5 cell/well. After 48 hours, growth media was aspirated and the cells were washed twice with phosphate buffered saline (PBS). […] After 90 min incubation at 37° C. in the transport buffer, the cells were washed 3-times with ice-cold PBS (2 ml/well) and lysed directly on the plate in the presence of 0.3% Triton X-100 (0.5 ml/well) for 20 min at room temperature. Plates were washed with additional 0.5 ml/well of Triton X-100, the lysate and wash were combined, scintillation fluid was added, and the radioactivity counted.
as §1

[1] = substrate: Nc1ccn(C[C@@H](CO)OCP(=O)(O)O)c(=O)n1; experiment: cells, lysate or membranes; conditions: other: CHO-hOAT cells; pH 7.2; 37.0 °C
Description: (§2) pIRES-hOAT plasmid was transfected into CHO-K1 cells (ATCC CCL61) growing in F-12 nutrient mixture supplemented with 10% fetal bovine serum, 100 U/ml penicillin, and 100 μg/ml streptomycin. 24 hours before transfection, approximately 6×10^6 CHO-K1 cells were seeded into 100-mm Petri dish. At the time of transfection, media was aspirated and 6 ml of fresh media containing 12 μg of pIRES-hOAT and 60 μg of Cytofectin GSV cationic lipid (Glen Research, Sterling, Va.) was added to the cells. Following overnight incubation, selection of stable transformants started in phenol red-free F-12 nutrient mixture containing fetal bovine serum, penicillin and streptomycin as above, plus 1 mg/ml G418 (CLONTECH). […] For the PAH uptake assay, the cells were seeded into 12-well plates at the density of 2×10^5 cell/well. After 48 hours, growth media was aspirated and the cells were washed twice with phosphate buffered saline (PBS). […] Plates were washed with additional 0.5 ml/well of Triton X-100, the lysate and wash were combined, scintillation fluid was added, and the radioactivity counted.

[2] = substrate: Nc1ncnc2c1ncn2CCOCP(=O)(O)O; experiment: cells, lysate or membranes; conditions: other: CHO-hOAT cells; pH 7.2; 37.0 °C
Description: as §2

Row | Molecule | fold more cytotoxic in CHO-hOAT compared to CHO cells (CHO-hOAT cells) [fold] | Vmax of uptake by CHO-hOAT (hOAT) | accumulation in CHO-hOAT (in words) (hOAT) | also measured
1 | Nc1ncnc2c1ncn2CCOCP(=O)(O)O [ADV, Adefovir] | ~500 | 390 pmol/10^6 cells |  | fold more susceptible CHO-hOAT than CHO in the presence of PBC (CHO-hOAT cells; in the presence of 1 mM PBC): 3 fold; accumulation in CHO-hOAT compared to CHO (hOAT; CHO-hOAT vs CHO cells): > 300 fold
2 | Nc1ccn(C[C@@H](CO)OCP(=O)(O)O)c(=O)n1 [CDV, cidofovir] | > 400 | 1,110 pmol/10^6 cells | efficiently accumulated | effect of PBC on cytotoxicity (in words) (CHO-hOAT cells; CHO-hOAT cells, with PBC): significantly reduced by PBC
3 | Nc1ccn(C[C@H]2COP(=O)(O)CO2)c(=O)n1 [cCDV] |  |  | not | increase of cytotoxicity in CHO-hOAT cells (in words) (CHO-hOAT cells): increased to much lesser extent
4 | hOAT (Homo sapiens) (protein) MAFNDLLQQVGGVGRFQQIQVTLVVLPLLLMASHNTLQNFTAAIPTHHCRPPADANLSKNGGLEVWLPRDRQGQPESCLRFTSPQWGLPFLNGTEANGTGATEPCTDGWIYDNSTFPSTIVTEWDLVCSHRALRQLAQSLYMVGVLLGAMVFGYLADRLGRRKVLILNYLQTAVSGTCAAFAPNFPIYCAFRLLSGMALAGISLNCMTLNVEWMPIHTRACVGTLIGYVYSLGQFLLAGVAYAVPHWRHLQLLVSAPFFAFFIYSWFFIESARWHSSSGRLDLTLRALQRVARINGKREEGAKLSMEVLRASLQKELTMGKGQASAMELLRCPTLRHLFLCLSMLWFATSFAYYGLVMDLQGFGVSIYLIQVIFGAVDLPAKLVGFLVINSLGRRPAQMAALLLAGICILLNGVIPQDQSIVRTSLAVLGKGCLAASFNCIFLYTGELYPTMIRQTGMGMGSTMARVGSIVSPLVSMTAELYPSMPLFIYGAVPVAASAVTVLLPETLGQPLPDTVQDLESRKGKQTRQQQEHQKYMVPLQASAQEKNGL |  |  |  | Km [1]: 70 µM; Km [2]: 23 µM
